From publication PMC5659129, “Determinants of the Inhibition of DprE1 and CYP2C9 by Antitubercular Thiophenes” (Angewandte Chemie (International Ed. in English), 2017)
Converted amounts (≈) assume the structure as drawn.

Tested on: Mtb Y314C mutant strain
Type: cell-based, Mycobacterium tuberculosis

SMILES	MIC Y314C
CCOC(=O)NC(=O)c1ccsc1NC(=O)c1nc2ccccc2s1 [TCA1]	5.4 ± 0.32 µM (≈ 2.03 µg/mL)
CCOC(=O)NC(=O)c1cc(F)sc1NC(=O)c1nc2ccccc2s1 [TCA481]	1.4 ± 0.086 µM (≈ 0.551 µg/mL)
CCOC(=O)NC(=O)c1ccsc1NC(=O)c1nc2cnccc2s1 [TCA007]	2.4 ± 0.34 µM (≈ 0.903 µg/mL)
Cc1ccnc(NC(=O)c2ccsc2NC(=O)c2nc3cnccc3s2)n1 [TCA787]	14 ± 1.4 µM (≈ 5.55 µg/mL)
O=C(Nc1sccc1C(=O)Nc1ncccn1)c1nc2cnccc2s1 [TCA020]	17 ± 1.1 µM (≈ 6.5 µg/mL)
